Measurements reported in paper PMC3933419, “Synthesis and Properties of a Selective Inhibitor of Homeodomain–Interacting Protein Kinase 2 (HIPK2)” (PLoS ONE, 2014).
“And” between values parts separate entries of the source, which are not always exact repeats. Equal values may be shown once.

Legend:
endogenous HIPK2 = biological target: T1, endogenous HIPK2 (Homo sapiens, UniProt Q9H2X6); assay: Activity of HIPK2 immunoprecipitated from treated HepG2 cells; format: cell-based
T1 construct: endogenous in cells; host or cells: HepG2
Procedure: HepG2 cells (human hepatocellular carcinoma) were cultured in Dulbecco's modified Eagle's medium (DMEM; Sigma) supplemented with 10% fetal calf serum, 2 mM L-glutamine, 100 unit/ml penicillin and 100 µg/ml streptomycin; CEM cells (human T lymphoblastoid cells) were cultured n RPMI-1640 (Sigma) with the same supplements. Cells were cultured in an atmosphere containing 5% CO2, at 37°C. Treatments with TBID were performed in the same medium but with 1% fetal calf serum; control cells were treated with the solvent (DMSO). Total cell lysates were prepared as in [29].
Alternatively, HIPK2 was immunoprecipitated with 2.5 µl anti-HIPK2 (Epitomics) from 350 µg of total lysate proteins deriving from HepG2 cells either treated or not with TBID following a protocol elsewhere described. An aspecific antibody was used as negative control. Immunoprecipitated HIPK2 activity was measured towards the specific peptide substrate ([…]) at 1.6 mM concentration, for 10 min at 30°C, under the same conditions described above for the in vitro kinase assay. Peptide radioactivity was measured after sample spotting on phospho-cellulose paper, washing and scintillation counting, as in [30], while the amount of HIPK2 immunoprecipitated was evaluated by WB.

HIPK2 = biological target: T2, HIPK2 (Homo sapiens, UniProt Q9H2X6); assay: Kinetic analysis of HIPK2 inhibition (Lineweaver-Burk); format: biochemical
T2 construct: The source of HIPK2 and of all of the other protein kinases used for specificity assays is as described elsewhere
Procedure: Initial velocities were determined at each of the ATP concentration tested, at 1 mM […] peptide concentration. Km values were calculated either in the absence or in the presence of increasing concentrations of inhibitor, from Lineweaver-Burk double-reciprocal plots of the data. Inhibition constants were then calculated by linear regression analysis of Km/Vmax versus inhibitor concentration plots.

JNK3 = JNK3 (Homo sapiens, UniProt P53779); assay: Kinase panel selectivity profiling; format: biochemical; conditions: TBID 1 μM, 125 kinase panel, read-out: % activity of the enzyme
Description: (§1) The source of HIPK2 and of all of the other protein kinases used for specificity assays is as described elsewhere.
(§2) Conditions for the activity assays of all other protein kinases tested in selectivity experiments are as described or referenced in [9].

TBK1 = TBK1 (Homo sapiens, UniProt Q9UHD2); assay: Kinase panel selectivity profiling; format: biochemical; conditions: TBID 1 μM, 125 kinase panel, read-out: % activity of the enzyme
Description: as §1, §2

MLK1 = MLK1 (Homo sapiens, UniProt P80192); assay: Kinase panel selectivity profiling; format: biochemical; conditions: TBID 1 μM, 125 kinase panel, read-out: % activity of the enzyme
Description: as §1, §2

PAK2 = PAK2 (Homo sapiens, UniProt Q13177); assay: Kinase panel selectivity profiling; format: biochemical; conditions: TBID 1 μM, 125 kinase panel, read-out: % activity of the enzyme
Description: as §1, §2

BRK = BRK (Homo sapiens, UniProt Q13882); assay: Kinase panel selectivity profiling; format: biochemical; conditions: TBID 1 μM, 125 kinase panel, read-out: % activity of the enzyme
Description: as §1, §2

IKKb = IKKb (Homo sapiens, UniProt O14920); assay: Kinase panel selectivity profiling; format: biochemical; conditions: TBID 1 μM, 125 kinase panel, read-out: % activity of the enzyme
Description: as §1, §2

MKK2 = MKK2 (Homo sapiens, UniProt P36507); assay: Kinase panel selectivity profiling; format: biochemical; conditions: TBID 1 μM, 125 kinase panel, read-out: % activity of the enzyme
Description: as §1, §2

MARK4 = MARK4 (Homo sapiens, UniProt Q96L34); assay: Kinase panel selectivity profiling; format: biochemical; conditions: TBID 1 μM, 125 kinase panel, read-out: % activity of the enzyme
Description: as §1, §2

MNK2 = MNK2 (Homo sapiens, UniProt Q9HBH9); assay: Kinase panel selectivity profiling; format: biochemical; conditions: TBID 1 μM, 125 kinase panel, read-out: % activity of the enzyme
Description: as §1, §2

VEG-FR = VEG-FR (Homo sapiens, UniProt P17948); assay: Kinase panel selectivity profiling; format: biochemical; conditions: TBID 1 μM, 125 kinase panel, read-out: % activity of the enzyme
Description: as §1, §2

EPH-B2 = EPH-B2 (Homo sapiens, UniProt P29323); assay: Kinase panel selectivity profiling; format: biochemical; conditions: TBID 1 μM, 125 kinase panel, read-out: % activity of the enzyme
Description: as §1, §2

PKA = PKA (Homo sapiens, UniProt P17612); assay: Kinase panel selectivity profiling; format: biochemical; conditions: TBID 1 μM, 125 kinase panel, read-out: % activity of the enzyme
Description: as §1, §2

PKCz = PKCz (Homo sapiens, UniProt Q05513); assay: Kinase panel selectivity profiling; format: biochemical; conditions: TBID 1 μM, 125 kinase panel, read-out: % activity of the enzyme
Description: as §1, §2

IR = IR (Homo sapiens, UniProt P06213); assay: Kinase panel selectivity profiling; format: biochemical; conditions: TBID 1 μM, 125 kinase panel, read-out: % activity of the enzyme
Description: as §1, §2

MST4 = MST4 (Homo sapiens, UniProt Q9P289); assay: Kinase panel selectivity profiling; format: biochemical; conditions: TBID 1 μM, 125 kinase panel, read-out: % activity of the enzyme
Description: as §1, §2

PHK = PHK (Homo sapiens, UniProt Q16816); assay: Kinase panel selectivity profiling; format: biochemical; conditions: TBID 1 μM, 125 kinase panel, read-out: % activity of the enzyme
Description: as §1, §2

CLK2 = CLK2 (Homo sapiens, UniProt P49760); assay: Kinase panel selectivity profiling; format: biochemical; conditions: TBID 1 μM, 125 kinase panel, read-out: % activity of the enzyme
Description: as §1, §2

ZAP70 = ZAP70 (Homo sapiens, UniProt P43403); assay: Kinase panel selectivity profiling; format: biochemical; conditions: TBID 1 μM, 125 kinase panel, read-out: % activity of the enzyme
Description: as §1, §2

PKBb = PKBb (Homo sapiens, UniProt P31751); assay: Kinase panel selectivity profiling; format: biochemical; conditions: TBID 1 μM, 125 kinase panel, read-out: % activity of the enzyme
Description: as §1, §2

MINK1 = MINK1 (Homo sapiens, UniProt Q8N4C8); assay: Kinase panel selectivity profiling; format: biochemical; conditions: TBID 1 μM, 125 kinase panel, read-out: % activity of the enzyme
Description: as §1, §2

OSR1 = OSR1 (Homo sapiens, UniProt O95747); assay: Kinase panel selectivity profiling; format: biochemical; conditions: TBID 1 μM, 125 kinase panel, read-out: % activity of the enzyme
Description: as §1, §2

NEK2a = NEK2a (Homo sapiens, UniProt P51955); assay: Kinase panel selectivity profiling; format: biochemical; conditions: TBID 1 μM, 125 kinase panel, read-out: % activity of the enzyme
Description: as §1, §2

PIM3 = PIM3 (Homo sapiens, UniProt Q86V86); assay: Kinase panel selectivity profiling; format: biochemical; conditions: TBID 1 μM, 125 kinase panel, read-out: % activity of the enzyme
Description: as §1, §2

LKB1 = LKB1 (Homo sapiens, UniProt Q15831); assay: Kinase panel selectivity profiling; format: biochemical; conditions: TBID 1 μM, 125 kinase panel, read-out: % activity of the enzyme
Description: as §1, §2

T1 sequence (Q9H2X6 whole entry): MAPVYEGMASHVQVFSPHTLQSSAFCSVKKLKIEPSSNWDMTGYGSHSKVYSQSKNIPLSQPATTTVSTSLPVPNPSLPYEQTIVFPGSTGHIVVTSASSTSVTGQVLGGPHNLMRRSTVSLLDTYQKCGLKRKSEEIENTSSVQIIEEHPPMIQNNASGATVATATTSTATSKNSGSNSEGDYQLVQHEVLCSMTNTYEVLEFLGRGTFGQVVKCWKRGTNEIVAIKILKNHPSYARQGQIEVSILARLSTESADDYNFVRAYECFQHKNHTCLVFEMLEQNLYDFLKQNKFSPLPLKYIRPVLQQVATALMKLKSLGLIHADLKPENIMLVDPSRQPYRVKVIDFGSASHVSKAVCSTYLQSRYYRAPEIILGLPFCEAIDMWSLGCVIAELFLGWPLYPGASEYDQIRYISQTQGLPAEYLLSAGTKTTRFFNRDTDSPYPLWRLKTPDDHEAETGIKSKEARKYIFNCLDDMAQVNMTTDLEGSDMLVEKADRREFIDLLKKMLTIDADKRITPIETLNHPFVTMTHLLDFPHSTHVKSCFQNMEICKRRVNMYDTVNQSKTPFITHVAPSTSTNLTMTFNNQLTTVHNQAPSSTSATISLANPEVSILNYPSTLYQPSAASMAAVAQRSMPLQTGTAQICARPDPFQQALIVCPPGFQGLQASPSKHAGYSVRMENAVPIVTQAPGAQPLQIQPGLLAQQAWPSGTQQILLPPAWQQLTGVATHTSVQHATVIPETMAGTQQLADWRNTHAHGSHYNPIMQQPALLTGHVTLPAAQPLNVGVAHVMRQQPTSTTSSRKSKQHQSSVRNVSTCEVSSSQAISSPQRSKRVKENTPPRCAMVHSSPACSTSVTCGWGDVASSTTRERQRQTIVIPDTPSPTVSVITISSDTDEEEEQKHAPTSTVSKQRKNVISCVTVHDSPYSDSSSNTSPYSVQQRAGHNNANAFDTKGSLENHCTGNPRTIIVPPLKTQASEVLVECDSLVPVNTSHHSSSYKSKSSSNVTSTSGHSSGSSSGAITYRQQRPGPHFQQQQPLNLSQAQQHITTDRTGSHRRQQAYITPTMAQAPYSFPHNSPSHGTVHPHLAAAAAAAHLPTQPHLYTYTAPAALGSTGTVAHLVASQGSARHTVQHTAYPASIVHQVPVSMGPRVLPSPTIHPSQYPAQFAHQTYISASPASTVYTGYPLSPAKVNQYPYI
T2 sequence (Q9H2X6 whole entry): as above
PHK, sequence (Q16816 whole entry): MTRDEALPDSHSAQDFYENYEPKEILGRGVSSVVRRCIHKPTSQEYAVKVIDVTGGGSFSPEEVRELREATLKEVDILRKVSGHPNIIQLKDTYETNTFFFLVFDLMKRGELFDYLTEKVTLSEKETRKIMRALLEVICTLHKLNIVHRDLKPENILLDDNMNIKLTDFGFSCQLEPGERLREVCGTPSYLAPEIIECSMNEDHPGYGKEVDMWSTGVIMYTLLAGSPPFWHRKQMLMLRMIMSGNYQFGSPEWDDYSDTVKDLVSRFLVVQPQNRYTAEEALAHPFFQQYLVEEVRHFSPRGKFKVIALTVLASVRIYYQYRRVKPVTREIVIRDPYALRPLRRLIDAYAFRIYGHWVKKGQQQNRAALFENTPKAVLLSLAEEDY
MKK2, sequence (P36507 whole entry): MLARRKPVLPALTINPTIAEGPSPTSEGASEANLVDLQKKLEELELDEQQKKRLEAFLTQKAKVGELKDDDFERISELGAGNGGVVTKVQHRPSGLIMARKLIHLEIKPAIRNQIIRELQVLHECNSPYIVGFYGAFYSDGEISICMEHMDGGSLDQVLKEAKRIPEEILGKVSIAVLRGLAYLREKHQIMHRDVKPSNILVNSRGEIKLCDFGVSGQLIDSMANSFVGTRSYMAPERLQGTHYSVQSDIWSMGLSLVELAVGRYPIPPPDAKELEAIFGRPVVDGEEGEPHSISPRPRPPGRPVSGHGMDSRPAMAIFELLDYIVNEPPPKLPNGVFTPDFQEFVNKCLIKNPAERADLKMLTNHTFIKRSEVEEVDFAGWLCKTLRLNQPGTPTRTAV
NEK2a, sequence (P51955 whole entry): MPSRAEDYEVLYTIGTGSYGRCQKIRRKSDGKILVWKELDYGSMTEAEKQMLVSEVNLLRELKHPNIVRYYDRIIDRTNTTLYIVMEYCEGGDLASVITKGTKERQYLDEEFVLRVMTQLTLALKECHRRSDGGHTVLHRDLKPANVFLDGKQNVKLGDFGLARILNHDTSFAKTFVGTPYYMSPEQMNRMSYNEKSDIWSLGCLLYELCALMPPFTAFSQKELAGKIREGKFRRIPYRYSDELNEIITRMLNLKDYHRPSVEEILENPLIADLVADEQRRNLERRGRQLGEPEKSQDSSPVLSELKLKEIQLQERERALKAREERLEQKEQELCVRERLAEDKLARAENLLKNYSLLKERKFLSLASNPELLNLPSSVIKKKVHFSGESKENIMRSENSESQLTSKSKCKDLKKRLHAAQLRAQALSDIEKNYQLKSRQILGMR
CLK2, sequence (P49760 whole entry): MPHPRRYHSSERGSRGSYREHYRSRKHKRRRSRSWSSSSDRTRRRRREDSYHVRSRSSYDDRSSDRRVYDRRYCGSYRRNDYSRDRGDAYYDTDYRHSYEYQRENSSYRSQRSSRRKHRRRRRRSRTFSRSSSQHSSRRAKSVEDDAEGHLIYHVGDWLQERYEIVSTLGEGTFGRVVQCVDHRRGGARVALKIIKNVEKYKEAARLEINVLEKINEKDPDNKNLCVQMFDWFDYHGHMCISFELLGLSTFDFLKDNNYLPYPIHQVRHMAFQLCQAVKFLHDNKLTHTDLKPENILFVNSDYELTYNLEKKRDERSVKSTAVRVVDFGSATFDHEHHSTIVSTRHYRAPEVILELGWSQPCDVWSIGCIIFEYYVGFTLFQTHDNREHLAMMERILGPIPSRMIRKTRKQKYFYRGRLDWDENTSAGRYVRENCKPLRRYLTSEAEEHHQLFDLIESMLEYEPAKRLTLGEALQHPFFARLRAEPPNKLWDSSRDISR
MST4, sequence (Q9P289 whole entry): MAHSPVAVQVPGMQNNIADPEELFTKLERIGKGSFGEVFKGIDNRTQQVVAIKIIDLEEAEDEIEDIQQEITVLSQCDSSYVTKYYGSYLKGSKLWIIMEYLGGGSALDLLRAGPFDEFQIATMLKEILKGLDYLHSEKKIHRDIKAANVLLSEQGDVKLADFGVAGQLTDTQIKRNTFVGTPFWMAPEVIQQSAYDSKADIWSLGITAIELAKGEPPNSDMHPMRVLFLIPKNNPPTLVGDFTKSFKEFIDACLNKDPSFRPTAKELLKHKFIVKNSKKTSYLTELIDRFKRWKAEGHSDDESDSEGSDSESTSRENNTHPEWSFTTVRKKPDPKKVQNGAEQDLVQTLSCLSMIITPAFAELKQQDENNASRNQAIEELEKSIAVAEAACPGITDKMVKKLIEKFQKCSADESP
VEG-FR, sequence (P17948 27-1338): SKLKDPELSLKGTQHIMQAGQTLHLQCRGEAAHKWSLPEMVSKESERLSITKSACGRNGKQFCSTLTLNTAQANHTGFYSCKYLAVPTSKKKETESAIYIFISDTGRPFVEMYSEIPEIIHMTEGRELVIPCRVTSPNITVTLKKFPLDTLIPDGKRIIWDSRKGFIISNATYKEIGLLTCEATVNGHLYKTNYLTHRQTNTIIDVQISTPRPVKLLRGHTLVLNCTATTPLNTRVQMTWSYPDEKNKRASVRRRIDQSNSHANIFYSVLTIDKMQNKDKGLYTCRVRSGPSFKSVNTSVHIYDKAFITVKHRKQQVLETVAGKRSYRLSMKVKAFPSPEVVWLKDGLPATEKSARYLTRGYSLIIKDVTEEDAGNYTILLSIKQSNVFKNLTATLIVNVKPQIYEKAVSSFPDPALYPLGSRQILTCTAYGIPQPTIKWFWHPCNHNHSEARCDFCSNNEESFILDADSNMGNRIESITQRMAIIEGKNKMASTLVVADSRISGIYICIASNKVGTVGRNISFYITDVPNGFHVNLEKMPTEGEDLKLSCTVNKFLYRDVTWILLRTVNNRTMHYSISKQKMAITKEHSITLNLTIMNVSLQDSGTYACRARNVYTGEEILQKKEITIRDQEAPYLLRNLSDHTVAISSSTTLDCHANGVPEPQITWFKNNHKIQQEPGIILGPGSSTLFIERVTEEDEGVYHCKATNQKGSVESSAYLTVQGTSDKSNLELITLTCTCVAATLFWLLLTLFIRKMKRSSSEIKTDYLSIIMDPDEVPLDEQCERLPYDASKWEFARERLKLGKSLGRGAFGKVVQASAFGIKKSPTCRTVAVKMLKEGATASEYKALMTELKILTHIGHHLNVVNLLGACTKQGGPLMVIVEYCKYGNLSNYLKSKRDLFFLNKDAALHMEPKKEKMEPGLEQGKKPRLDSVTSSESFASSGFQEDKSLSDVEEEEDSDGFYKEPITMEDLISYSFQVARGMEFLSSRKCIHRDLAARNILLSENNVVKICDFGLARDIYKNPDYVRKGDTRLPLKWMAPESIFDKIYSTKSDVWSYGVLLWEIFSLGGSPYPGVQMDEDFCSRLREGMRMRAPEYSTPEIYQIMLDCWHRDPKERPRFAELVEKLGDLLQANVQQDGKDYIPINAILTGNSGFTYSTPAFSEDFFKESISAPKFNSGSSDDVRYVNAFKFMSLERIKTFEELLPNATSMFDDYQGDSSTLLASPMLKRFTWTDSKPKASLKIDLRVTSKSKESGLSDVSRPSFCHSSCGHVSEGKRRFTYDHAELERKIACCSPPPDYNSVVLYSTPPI

`O=C1c2c(Br)c(Br)c(Br)c(Br)c2C(=O)N1c1ncc[nH]1` [TBID, 4,5,6,7-Tetrabromo-2-(1H-imidazol-2-yl)isoindoline-1,3-dione] was tested, and the IC50 (endogenous HIPK2; HIPK2 activity in cells treated with TBID, read-out: IC50 in cells (concentration required for half maximal inhibition)) was ~50 µM and 50 µM, the “endogenous HIPK2 activity upon cell treatment” value (endogenous HIPK2; HepG2 cells, increasing concentrations, immunoprecipitated HIPK2) was “reduced in a dose dependent manner” and the Ki (HIPK2) was 0.2 µM. For the same compound, the “mode of inhibition of HIPK2” value (HIPK2; with respect to ATP) was “competitive with respect to ATP”, the activity at 1 µM (JNK3) was 101% and the activity at 1 µM (TBK1) was 108%. For the same compound, the activity at 1 µM (MLK1) was 83%, the activity at 1 µM (PAK2) was 97% and the activity at 1 µM (BRK) was 103%. The activity at 1 µM (IKKb) was 99%, the activity at 1 µM (MKK2) was 96% and the activity at 1 µM (MARK4) was 95%. It also gave an activity at 1 µM (MNK2) of 113%, an activity at 1 µM (VEG-FR) of 115% and an activity at 1 µM (EPH-B2) of 108%. It also gave an activity at 1 µM (PKA) of 104%, an activity at 1 µM (PKCz) of 104% and an activity at 1 µM (IR) of 101%. The activity at 1 µM (MST4) was 108%, the activity at 1 µM (PHK) was 116% and the activity at 1 µM (CLK2) was 101%. It also gave an activity at 1 µM (ZAP70) of 91%, an activity at 1 µM (PKBb) of 104% and an activity at 1 µM (MINK1) of 91%. The activity at 1 µM (OSR1) was 103%, the activity at 1 µM (NEK2a) was 89% and the activity at 1 µM (PIM3) was 101%. It also gave an activity at 1 µM (LKB1) of 102%.
